The EC50 is the midpoint of the concentration-response curve. As usually defined, the AUC(0-inf) is the area under the concentration-time curve extrapolated to infinity. A low value points to low exposure. In general, Cmax refers to the peak of the concentration-time curve. By Tmax is commonly meant the time from dosing to the highest level. The term half-life denotes the time in which the quantity being followed falls by half.

*1 amine or outer side, *2 acyl side, *3 side chain or, on linkers, in order; H or OH if unused. Where a SMILES comes first, the peptide text is derived from it. Side-chain parts run from the residue outwards. [ ]: non-standard residue; d: D form. The star is where a group is joined. C18 diacid = O=C(O)CCCCCCCCCCCCCCCCC(=O)*; γGlu = O=C(O)[C@H](CCC(=O)[*:2])N[*:1]; AEEA = NCCOCCOCC(=O)O; Aib = CC(C)(N)C(=O)O Bounds are passed on as bounds.

The text below walks through data of patent publication EP4696708A1, “PEPTIDE TYROSINE-TYROSINE ANALOG AND USE THEREOF” (The United Bio-Technology (Hengqin) Co., Ltd., priority 2023, dated 2024).

For data set [1], the target named is T1, recombinant human NPY2 receptor (Homo sapiens, UniProt P49146).
T1 construct: expressed in transfected cells; host or cells: HEK 293
T1 sequence (P49146 1-381): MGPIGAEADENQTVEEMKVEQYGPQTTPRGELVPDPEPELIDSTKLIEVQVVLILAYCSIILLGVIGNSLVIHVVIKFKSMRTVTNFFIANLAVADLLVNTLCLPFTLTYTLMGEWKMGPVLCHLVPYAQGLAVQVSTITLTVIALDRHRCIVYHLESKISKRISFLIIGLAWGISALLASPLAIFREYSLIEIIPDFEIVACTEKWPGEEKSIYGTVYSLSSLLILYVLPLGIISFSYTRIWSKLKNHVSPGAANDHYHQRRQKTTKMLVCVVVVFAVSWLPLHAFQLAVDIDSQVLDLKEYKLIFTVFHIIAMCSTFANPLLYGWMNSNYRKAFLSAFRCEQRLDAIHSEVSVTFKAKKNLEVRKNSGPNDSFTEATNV
The experiment in a line: cAMP assay, in vitro functional activity on NPY2 receptors (inhibition of Forskolin-induced cAMP production). The class given is cell-based. Particulars: HEK 293 cells overexpressing recombinant human NPY2 receptor; average of at least 3 independent tests; read-out: hNPY2R EC50. Here is the method: After addition, they were centrifuged at 1000 rpm for 1 minute. • 5) 5 µL of 2 µM Forskolin (prepared with detection buffer) was added to a 384-well cell reaction plate using Multidrop Combi and centrifuged at 1000 rpm for 1 minute. 5 µL of detection buffer containing cells was added to a 384-well reaction plate, ensuring a cell count of 3000 cells per well. […] It was covered with a lid and incubated at room temperature in the dark for 1 hour. • 7) After incubation for 1 hour, it was placed in an EnVision microplate reader for measurement.
A general note: Changes in cAMP serve as a functional read-out for many G protein-coupled receptors.

In the next data set the target is T2, hNPY1R (Homo sapiens, UniProt P25929).
T2 sequence (P25929 1-384): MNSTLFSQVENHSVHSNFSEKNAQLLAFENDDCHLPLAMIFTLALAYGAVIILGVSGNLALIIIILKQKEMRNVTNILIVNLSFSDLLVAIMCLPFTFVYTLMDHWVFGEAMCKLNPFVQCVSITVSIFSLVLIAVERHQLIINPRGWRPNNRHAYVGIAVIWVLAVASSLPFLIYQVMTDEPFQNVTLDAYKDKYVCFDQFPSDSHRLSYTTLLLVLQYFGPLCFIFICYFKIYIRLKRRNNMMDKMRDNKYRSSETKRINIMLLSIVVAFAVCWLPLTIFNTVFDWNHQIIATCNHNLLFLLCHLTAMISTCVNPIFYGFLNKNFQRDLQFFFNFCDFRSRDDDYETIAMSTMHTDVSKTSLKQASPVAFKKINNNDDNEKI
The experiment in a line: calcium flux assay (FLIPR), in vitro functional activity on human NPY1 receptor. The class given is cell-based. Particulars: initial concentration 1 µM, average of at least 3 independent tests. For orientation: Calcium flux is commonly read through the fluorescence of an indicator in the cells.

A short description of data set [2]: plasma pharmacokinetics in SD rats (LC-MS/MS). It counts as in vivo. Particulars: rat, sc, male rats, single subcutaneous 0.492 mg/kg. The procedure: (§1) Blood samples were collected from each animal at each time point after administration, and the blood samples were centrifuged at around 4°C, 3200 g, for 10 minutes. Plasma was collected separately, transferred to pre-labeled 96-well plates or polypropylene tubes, speedily frozen on dry ice, and stored at -60°C or lower until LC-MS/MS analysis.
(§2) LC-MS/MS method was adopted to determine the concentration of the measured analogues in blood samples. The data on the changes in plasma concentration over time were plotted into a chart and analyzed using non partitioned methods with Phoenix WinNonlin 6.3 software program. Relevant PK parameters were calculated based on the administration routes.
The plasma pharmacokinetics of PYY analogues in male SD rats were evaluated after a single subcutaneous administration of 0.492 mg/kg Analogue 3. Blood samples were collected from 3 rats at each time point after administration for 0.5h, 1h, 2h, 4h, 8h, 12h, 16h, 24h, 48h, 72h, 96h, 120h, 144h, 168h, extending to 168h. Due to the use of discontinuous sampling to evaluate the kinetics of PYY analogues in rats, the pharmacokinetic parameters of Analogue 3 after a single subcutaneous administration of 0.492 mg/kg were listed using average concentration-time data.

Data set [3] is described as follows: plasma pharmacokinetics in crab-eating macaques (LC-MS/MS). Particulars: monkey, sc, male crab-eating macaques, single subcutaneous 0.246 mg/kg. The class given is in vivo. The procedure:
as §1, §2
The plasma pharmacokinetics of PYY analogues in male crab-eating macaques were evaluated after a single subcutaneous administration of 0.246 mg/kg Analogue 3. Blood samples were collected from 2 crab-eating macaques at each time point after administration for 1h, 2h, 4h, 8h, 12h, 24h, 48h, 72h, 96h, 120h, 144h, 168h, 192h, 240h, 288h, 336h, 408h, 504h, extending to 504 hours. Due to the use of discontinuous sampling to evaluate the kinetics of PYY analogues in crab-eating macaques, the pharmacokinetic parameters of Analogue 3 after a single subcutaneous administration of 0.246 mg/kg were listed using average concentration-time data.

Experimental for hNPY1R: • 1) Preparation of test analogue and positive reference agonist: the test analogue was diluted 4-fold to 10 concentrations using Bravo, transferred 900 nL to the analogue plate using Echo, and then added with 30 µL of detection buffer (20 mM HEPES, 1×HBSS, 0.1% casein) to each well. The initial concentration of the test analogue and the positive reference agonist were 1 µM. • 2) The cell plate was removed from the incubator (cell Y1 needs to be removed of the culture medium and added with 20 µL of detection buffer, otherwise they will all be a high signal; it is not necessary for Y5), added with 2*Fluo-4 detection reagent, 20 µL per well, incubated in a 37°C incubator for 50 minutes, and then left to stand at room temperature for 10 minutes. • 3) The cell plate, the analogue plate, and the pipette tip were placed into the FLIPR instrument, the instrument was started, and 10 µL of analogue was transferred from the analogue plate to the cell plate. […] Using the logarithm of the concentration of analogues as the horizontal axis and the activation rate of calcium ion fluorescence signal as the vertical axis, the "Nonlinear regression (curve fit)-log (antigen) vs. response Variable slope" model in GraphPad Prism 5.0 was used for fitting to calculate the EC50 of the sample.

Take `CC(C)C[C@H](NC(=O)[C@H](Cc1ccc(O)cc1)NC(=O)[C@H](Cc1c[nH]cn1)NC(=O)[C@H](CCCNC(=N)N)NC(=O)[C@H](CC(C)C)NC(=O)[C@H](CCC(=O)O)NC(=O)C(C)(C)NC(=O)[C@H](Cc1ccc(O)cc1)NC(=O)[C@H](Cc1ccc(O)cc1)NC(=O)[C@H](CCCNC(=N)N)NC(=O)[C@H](CCC(N)=O)NC(=O)[C@H](Cc1c[nH]c2ccccc12)NC(=O)[C@H](CCC(=O)O)NC(=O)[C@H](CCC(=O)O)NC(=O)[C@@H]1CCCN1C(=O)[C@H](CO)NC(=O)[C@H](C)NC(=O)[C@H](CC(=O)O)NC(=O)C(C)(C)NC(=O)[C@H](CCC(=O)O)NC(=O)[C@@H]1CCCN1C(=O)[C@H](CCCCNC(=O)COCCOCCNC(=O)CC[C@H](NC(=O)CCCCCCCCCCCCCCCCC(=O)O)C(=O)O)NC(=O)[C@H](CCC(=O)O)NC(=O)[C@@H]1CCCN1C(=O)[C@H](CCCCN)NC(=O)[C@@H]1CCCN1)C(=O)N[C@@H](CC(N)=O)C(=O)N[C@@H](Cc1c[nH]c2ccccc12)C(=O)N[C@@H](CC(C)C)C(=O)N[C@H](C(=O)N[C@@H](CCCNC(=N)N)C(=O)N[C@@H](CCC(N)=O)C(=O)N[C@@H](CCCNC(=N)N)C(=O)N[C@@H](Cc1ccc(O)cc1)C(N)=O)[C@@H](C)O` [Analogue 3]: the EC50 in data set [1] worked out at 0.037 nM. The EC50 on hNPY1R was more than 50 nM. Also, in data set [2], the AUC(0-inf) is 79.6 µg·h/mL, the Cmax turned out to be 1940 ng/mL, the Tmax worked out at 13.3 h and the half-life was 24.7 h. Besides, in data set [3], the AUC(0-inf) is 337 µg·h/mL, the Cmax amounted to 1780 ng/mL, the Tmax came out at 12 h and the half-life was 126 h.
Turning to `CC(C)C[C@H](NC(=O)[C@H](CCC(=O)O)NC(=O)[C@H](C)NC(=O)[C@H](Cc1ccc(O)cc1)NC(=O)[C@H](Cc1ccc(O)cc1)NC(=O)[C@H](CCCNC(=N)N)NC(=O)[C@H](CCC(N)=O)NC(=O)[C@H](Cc1c[nH]c2ccccc12)NC(=O)[C@H](CCC(=O)O)NC(=O)[C@H](CCC(=O)O)NC(=O)[C@@H]1CCCN1C(=O)[C@H](CO)NC(=O)[C@H](C)NC(=O)[C@H](CC(=O)O)NC(=O)C(C)(C)NC(=O)[C@H](CCC(=O)O)NC(=O)[C@@H]1CCCN1C(=O)[C@H](CCCCNC(=O)COCCOCCNC(=O)CC[C@H](NC(=O)CCCCCCCCCCCCCCCCC(=O)O)C(=O)O)NC(=O)[C@H](CCC(=O)O)NC(=O)[C@@H]1CCCN1C(=O)[C@H](CCCCN)NC(=O)[C@@H]1CCCN1)C(=O)N[C@@H](CCCNC(=N)N)C(=O)N[C@@H](Cc1c[nH]cn1)C(=O)N[C@@H](Cc1ccc(O)cc1)C(=O)N[C@@H](CC(C)C)C(=O)N[C@@H](CC(N)=O)C(=O)N[C@@H](Cc1c[nH]c2ccccc12)C(=O)N[C@@H](CC(C)C)C(=O)N[C@H](C(=O)N[C@@H](CCCNC(=N)N)C(=O)N[C@@H](CCC(N)=O)C(=O)N[C@@H](CCCNC(=N)N)C(=O)N[C@@H](Cc1ccc(O)cc1)C(N)=O)[C@@H](C)O` [Analogue 2], the EC50 in data set [1] was 0.037 nM; at hNPY1R it was more than 50 nM.
With `CC(C)C[C@H](NC(=O)[C@H](Cc1ccc(O)cc1)NC(=O)[C@H](Cc1c[nH]cn1)NC(=O)[C@H](CCCNC(=N)N)NC(=O)[C@H](CC(C)C)NC(=O)[C@H](CO)NC(=O)C(C)(C)NC(=O)[C@H](Cc1ccc(O)cc1)NC(=O)[C@H](Cc1ccc(O)cc1)NC(=O)[C@H](CCCNC(=N)N)NC(=O)[C@H](CCC(N)=O)NC(=O)[C@H](Cc1c[nH]c2ccccc12)NC(=O)[C@H](CCC(=O)O)NC(=O)[C@H](CCC(=O)O)NC(=O)[C@@H]1CCCN1C(=O)[C@H](CO)NC(=O)C(C)(C)NC(=O)[C@H](CC(=O)O)NC(=O)[C@H](CCC(=O)O)NC(=O)[C@H](CCC(=O)O)NC(=O)[C@@H]1CCCN1C(=O)[C@H](CCCCNC(=O)COCCOCCNC(=O)CC[C@H](NC(=O)CCCCCCCCCCCCCCCCC(=O)O)C(=O)O)NC(=O)[C@H](CCC(=O)O)NC(=O)[C@@H]1CCCN1C(=O)[C@H](CCCCN)NC(=O)[C@@H]1CCCN1)C(=O)N[C@@H](CC(N)=O)C(=O)N[C@@H](Cc1c[nH]c2ccccc12)C(=O)N[C@@H](CC(C)C)C(=O)N[C@H](C(=O)N[C@@H](CCCNC(=N)N)C(=O)N[C@@H](CCC(N)=O)C(=O)N[C@@H](CCCNC(=N)N)C(=O)N[C@@H](Cc1ccc(O)cc1)C(N)=O)[C@@H](C)O` [Analogue 1] (H-PKPEK([AEEA-γGlu-C18 diacid])PEED[Aib]SPEEWQRYY[Aib]SLRHYLNWLTRQRY-NH2), at hNPY1R, the EC50 was more than 50 nM.
